Measurements reported in ChEMBL document CHEMBL5512601, “Small-molecule inhibitors targeting apoptosis signal-regulated kinase 1” (Eur J Med Chem, 2023).
Blank lines part the entries; values can stand above or below the molecule they belong to.

Tests used:
[1] = target: T1, Mitogen-activated protein kinase kinase kinase 5 (Homo sapiens, UniProt Q99683); experiment: Inhibition of human ASK1
T1 sequence (Q99683 whole entry): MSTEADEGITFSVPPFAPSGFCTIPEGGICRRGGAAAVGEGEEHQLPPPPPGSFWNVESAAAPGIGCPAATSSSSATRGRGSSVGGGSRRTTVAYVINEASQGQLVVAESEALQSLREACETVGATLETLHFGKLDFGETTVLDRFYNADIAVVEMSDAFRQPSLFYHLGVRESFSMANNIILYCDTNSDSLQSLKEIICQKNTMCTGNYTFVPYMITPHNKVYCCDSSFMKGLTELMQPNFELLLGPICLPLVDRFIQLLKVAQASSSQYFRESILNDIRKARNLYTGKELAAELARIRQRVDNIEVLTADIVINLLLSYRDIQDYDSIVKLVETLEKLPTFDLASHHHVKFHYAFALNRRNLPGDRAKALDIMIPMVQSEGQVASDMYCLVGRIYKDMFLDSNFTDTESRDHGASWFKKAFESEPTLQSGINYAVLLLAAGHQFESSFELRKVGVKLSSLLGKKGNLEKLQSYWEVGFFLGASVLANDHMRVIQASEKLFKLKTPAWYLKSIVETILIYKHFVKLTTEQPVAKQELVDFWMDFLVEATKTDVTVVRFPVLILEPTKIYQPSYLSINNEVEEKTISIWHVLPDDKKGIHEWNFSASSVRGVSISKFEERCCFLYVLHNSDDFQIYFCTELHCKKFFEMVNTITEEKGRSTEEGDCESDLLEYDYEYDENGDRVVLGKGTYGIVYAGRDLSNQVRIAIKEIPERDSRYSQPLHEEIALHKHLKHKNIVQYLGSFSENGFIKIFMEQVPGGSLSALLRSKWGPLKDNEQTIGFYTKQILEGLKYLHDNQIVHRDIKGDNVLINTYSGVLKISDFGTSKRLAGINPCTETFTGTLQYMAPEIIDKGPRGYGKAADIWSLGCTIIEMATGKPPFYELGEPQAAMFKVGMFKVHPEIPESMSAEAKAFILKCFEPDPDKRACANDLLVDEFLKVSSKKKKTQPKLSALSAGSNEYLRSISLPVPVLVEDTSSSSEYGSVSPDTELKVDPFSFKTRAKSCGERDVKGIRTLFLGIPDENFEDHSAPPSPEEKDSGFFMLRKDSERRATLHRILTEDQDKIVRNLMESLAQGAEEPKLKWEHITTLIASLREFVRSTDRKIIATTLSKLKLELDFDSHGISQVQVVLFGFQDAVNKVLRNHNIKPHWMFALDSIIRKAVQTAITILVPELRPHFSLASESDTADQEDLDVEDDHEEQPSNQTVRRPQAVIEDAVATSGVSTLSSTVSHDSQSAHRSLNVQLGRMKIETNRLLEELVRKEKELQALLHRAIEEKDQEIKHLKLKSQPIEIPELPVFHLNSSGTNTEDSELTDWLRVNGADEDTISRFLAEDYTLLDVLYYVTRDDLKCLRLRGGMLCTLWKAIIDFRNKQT

[2] = Toxicity in C57BL/6J mouse harboring SOD1 mutant assessed as animal survival (reference value: 1.06%); conditions: in vivo, read-out: Activity
[3] = target: T1, Mitogen-activated protein kinase kinase kinase 5; experiment: Inhibition of ASK1 (unknown origin)
[4] = target: 3-phosphoinositide-dependent protein kinase 1 (Homo sapiens) (UniProt O15530); experiment: Inhibition of PDK1 (unknown origin) at 10 uM relative to control
[5] = target: T1, Mitogen-activated protein kinase kinase kinase 5; experiment: Inhibition of ASK1 (unknown origin) incubated for 0.5 to 5 hrs by TR-FRET assay
[6] = target: T1, Mitogen-activated protein kinase kinase kinase 5; experiment: Inhibition of full length GST-tagged recombinant human ASK1 using MBP as substrate incubated for 20 mins by cell based assay
[7] = target: T1, Mitogen-activated protein kinase kinase kinase 5; experiment: Inhibition of ASK1 in HEK293 cells; type: cell-based
[8] = Apparent permeability of compound across apical to basolateral side in human Caco2 cells; type: ADME, cell-based; conditions: Caco-2
[9] = Half life in Sprague-Dawley rat at 1 mg/kg, iv by LC-MS/MS analysis; type: ADME, organism-based; conditions: in vivo
[10] = Oral bioavailability in Sprague-Dawley rat at 1 mg/kg by LC-MS/MS analysis; type: ADME, organism-based; conditions: in vivo
[11] = target: T1, Mitogen-activated protein kinase kinase kinase 5; experiment: Inhibition of ASK1 (unknown origin) incubated for 2 hrs
[12] = target: T1, Mitogen-activated protein kinase kinase kinase 5; experiment: Inhibition of ASK1 phosphorylation in HEK293T cells incubated for 1 hr; type: cell-based
[13] = Unbound brain-to-plasma concentration ratio in rat at 1 mg/kg, iv by LC-MS/MS analysis; type: ADME, organism-based; conditions: brain and plasma, read-out: K(p,uu,brain)
[14] = target: T1, Mitogen-activated protein kinase kinase kinase 5; experiment: Inhibition of human recombinant ASK1 by HTRF assay
[15] = target: T1, Mitogen-activated protein kinase kinase kinase 5; experiment: Inhibition of human ASK1 using STK-substrate biotin as substrate by TR-FRET assay
[16] = target: T1, Mitogen-activated protein kinase kinase kinase 5; experiment: Inhibition of ASK1 (unknown origin) preincubated with compound for 30 mins followed by ATP addition and measured after 120 mins by HTRF analysis
[17] = Cmax in rat 5 mg/kg, po measured upto 24 hrs by LC-MS/MS analysis; type: ADME, organism-based; conditions: in vivo
[18] = AUC (0 to t) in rat 5 mg/kg, po measured upto 24 hrs by LC-MS/MS analysis; type: ADME, organism-based; conditions: in vivo
[19] = Half life in rat 5 mg/kg, po measured upto 24 hrs by LC-MS/MS analysis; type: ADME, organism-based; conditions: in vivo

3-phosphoinositide-dependent protein kinase 1 (Homo sapiens), sequence (O15530 whole entry, looked up): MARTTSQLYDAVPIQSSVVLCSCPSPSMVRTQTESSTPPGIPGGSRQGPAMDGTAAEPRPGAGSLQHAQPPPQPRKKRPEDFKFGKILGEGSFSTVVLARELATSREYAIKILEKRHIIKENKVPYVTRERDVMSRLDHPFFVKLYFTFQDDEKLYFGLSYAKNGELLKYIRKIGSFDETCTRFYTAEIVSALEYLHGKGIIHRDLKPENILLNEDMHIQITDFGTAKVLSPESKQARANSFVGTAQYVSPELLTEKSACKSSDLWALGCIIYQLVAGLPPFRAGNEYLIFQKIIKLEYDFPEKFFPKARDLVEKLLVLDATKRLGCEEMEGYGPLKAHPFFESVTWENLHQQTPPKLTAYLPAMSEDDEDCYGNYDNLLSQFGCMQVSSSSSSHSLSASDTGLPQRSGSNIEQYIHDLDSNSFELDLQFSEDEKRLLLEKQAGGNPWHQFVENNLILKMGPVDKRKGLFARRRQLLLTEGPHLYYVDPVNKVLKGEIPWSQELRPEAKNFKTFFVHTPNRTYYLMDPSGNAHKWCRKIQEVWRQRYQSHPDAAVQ

Compound: COc1cc2nccc(Oc3ccc(NC(=O)c4cn(C(C)C)c5c(c4=O)CCC=C5)cc3)c2cc1OC
IC50 [1]: 6 nM
survival [2]: 1.09%

Compound: Cn1nc(C(F)(F)F)c2cc(C(=O)Nc3cccc(-c4nncn4C4CC4)n3)c(=O)[nH]c21
IC50 [3]: 2660 nM
inhibition [4]: 42.9%

Compound: Cc1cc(F)c(C(=O)Nc2cccc(-c3nnc4n3CCCC4)n2)cc1-n1cnc(C2CC2)c1
IC50 [5]: 18 nM
IC50 [6]: ≤ 100 nM

Compound: CC(C)n1cnnc1-c1nc(NC(=O)c2cc3c(cc2F)CCCc2nc(C4CC4)cn2-3)cs1
IC50 [3]: > 50 nM

Compound: CC(C)n1cnnc1-c1cccc(NC(=O)c2cc3c(cc2F)CCCc2nc(C4CC4)cn2-3)n1
IC50 [3]: < 10 nM

Compound: C[C@H](CO)n1cnnc1-c1cccc(N2CCN(c3ccc(C(=O)N4CCCCC4)cn3)C2=O)n1
IC50 [14]: ≤ 50 nM
EC50 [15]: ≤ 50 nM

Compound: COc1cc2nncc(Oc3ccc(NC(=O)c4cn(C(C)C)c5c(c4=O)CCC=C5)cc3)c2cc1OC
IC50 [1]: 6 nM
survival [2]: 1.08%

Compound: CC(C)n1cnnc1-c1cccc(NC(=O)c2cc3c(cc2F)COCc2nc(C4CC4)cn2-3)n1
IC50 [3]: < 10 nM

Compound: CC(C)n1cnnc1-c1cccc(NC(=O)c2cc3c(cc2F)CNCCc2c(C4CC4)ncn2-3)n1
IC50 [3]: < 10 nM

Compound: Cc1ccc(N(C)C(=O)Nc2cccc(-c3nncn3C(C)C)n2)c(F)c1
EC50 [15]: ≤ 5000 nM

Compound: Cc1cc(F)c(C(=O)Nc2cccc(-c3nnc4n3CCS(=O)(=O)C4)n2)cc1-n1cnc(C2CC2)c1
IC50 [5]: 10 nM

The next lines start with the values.

IC50 [3]: 1.65 nM
Compound: COc1cc2ccn(-c3cccc(-c4nncn4C(C)C)n3)c(=O)c2cc1-n1cnc(C2CC2)c1

IC50 [3]: 0.93 nM
Compound: CC(C)n1cnnc1-c1cccc(N2Cc3ccc(-n4cnc(C5CC5)c4)cc3C2=O)n1

IC50 [3]: 1.83 nM
Compound: CC(C)n1cnnc1-c1cccc(N2CCc3ccc(-n4cnc(C5CC5)c4)cc3C2=O)n1

EC50 [7]: 3.4 nM
Papp A→B [8]: 3.1 ×10⁻⁶ cm/s
half-life [9]: 0.59 h
bioavailability [10]: 11%
Compound: CC(C)n1cnnc1-c1cccc(NC(=O)c2cccc(-n3cnc(C4CC4)c3)c2)n1

IC50 [11]: ≤ 100 nM
IC50 [12]: ≤ 100 nM
Kp uu [13]: ≥ 0.1
Compound: C[C@H]1CCCOc2ncc(-c3ccncc3)cc2C(=O)Nc2cccc(n2)-c2nncn21

IC50 [3]: 2.2 nM
Compound: Cc1cc2c(cc1-n1cnc(C3CC3)c1)C(=O)N(c1cccc(-c3nncn3C(C)C)n1)CC2

IC50 [14]: ≤ 50 nM
Compound: Cc1ccc(-c2cnc(-c3cccc(-c4nncn4C(C)C)n3)o2)c(F)c1

IC50 [3]: 5.91 nM
Compound: CC(C)n1cnnc1-c1cccc(N2CC(C)(C)c3ccc(-n4cnc(C5CC5)c4)cc3C2=O)n1

IC50 [16]: 11.1 nM
Compound: CC(C)n1cnnc1-c1cccc(-n2cnc3ccc(-n4cnc(C5CC5)c4)cc3c2=O)n1

IC50 [3]: 3.22 nM
Compound: CC(C)n1cnnc1-c1cccc(N2C(=O)c3ccc(-n4cnc(C5CC5)c4)cc3C2(C)C)n1

IC50 [14]: 0.7 nM
Compound: CC(C)n1cnnc1-c1cccc(C(=O)Nc2cc(-n3cnc(C4CC4)c3)ccn2)n1

IC50 [16]: 4.26 nM
Compound: CC(C)n1cnnc1-c1cccc(N2CCOc3ccc(-n4cnc(C5CC5)c4)cc3C2=O)n1

IC50 [3]: 2.71 nM
Compound: CC(C)n1cnnc1-c1cccc(-n2ccc3ccc(-n4cnc(C5CC5)c4)cc3c2=O)n1

Cmax [17]: 2270 ng/mL
AUC(0-t) at 24 h [18]: 9430 ng·h/mL
half-life [19]: 2.9 h
Compound: Cc1cc2c(cc1-n1cnc(C3CC3)c1)C(=O)N(c1cccc(-c3nncn3C(C)C)n1)C2C (centres undefined)

IC50 [3]: 5.09 nM
IC50 [5]: 3.9 nM
Compound: CC(C)n1nnnc1-c1cccc(N2C(=O)c3cc(-n4cnc(C5CC5)c4)ccc3C2(C)C)n1
